From patent publication US6444617B1, “Fused-heterocycle dicarboxylic acid diamide derivatives or salts thereof, herbicide and usage thereof” (Nihon Nohyaku Co., Ltd., priority 1998, dated 2002)

How the values were obtained:
Assay type in all cases: in vivo
[1] = tested on: barnyard grass (Echinochloa crus-galli Beauv.); experiment: Test Example 1: herbicidal effect on paddy field weeds before emergence; details: Dosage 5 kg/ha
Outline: (§1)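 Soil in pots is brought to paddy state and seeded with barnyard grass and bulrush; before germination, the soil receives a predetermined dosage of test compound in solution. After twenty-one days, control rate relative to untreated pots is calculated and graded.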

[2] = tested on: bulrush (Scirpus juncoides Roxb.); experiment: as above; details: Dosage 5 kg/ha
Outline: as §1

[3] = tested on: wheat (Wh); experiment: Test Example 3: phytotoxicity to upland crop plants, treatment before emergence; details: dosage 5 kg/ha
Outline: (§2)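 Crops treated before emergence with sprayed liquid preparation of compound (prescribed concentration). Day 14: phytotoxicity graded per criterion.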

[4] = tested on: soybean plant (So); experiment: as above; details: dosage 5 kg/ha
Outline: as §2

[5] = tested on: barnyard grass (Echinochloa crus-galli Beauv.); experiment: Test Example 2: herbicidal effect on paddy field weeds after emergence; details: Dosage 5 kg/ha; one-leaved stage; 21 days after treatment
Outline: (§3)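 Weeds in flooded paddy-soil pots were grown to the one-leaved stage, then the soil was treated with the compound solution at a set dosage.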

[6] = tested on: bulrush (Scirpus juncoides Roxb.); experiment: as above; details: Dosage 5 kg/ha; one-leaved stage; 21 days after treatment
Outline: as §3

[7] = tested on: monochoria (Monochoria vaginalis Presl); experiment: as above; details: Dosage 5 kg/ha; one-leaved stage; 21 days after treatment
Outline: as §3

[8] = tested on: cleavers (Galium aparine L.), Ga; experiment: Test Example 3: herbicidal effect on upland weeds before emergence; details: dosage 5 kg/ha
Outline: (§4)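 Pre-emergence spray of liquid prep, compound at set concentration; read at 14 d post-treatment; weed-kill rate calculated, effect graded.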

[9] = tested on: bird's eye speedwell (Veronica persica Poir.), Vp; experiment: as above; details: dosage 5 kg/ha
Outline: as §4

[10] = tested on: forxtail grass (Alopecurus aequalis var. amurensis Ohwi), Am; experiment: as above; details: foxtail grass, dosage 5 kg/ha
Outline: as §4

[11] = tested on: barnyard grass (Echinochloa crus-galli Beauv.), Ec; experiment: as above; details: dosage 5 kg/ha
Outline: as §4

[12] = tested on: velvetleaf (Abutilon theophtasti L.), At; experiment: as above; details: dosage 5 kg/ha
Outline: as §4

[13] = tested on: cocklebur (Xanthium strumarium L.), Xs; experiment: as above; details: dosage 5 kg/ha
Outline: as §4

[14] = tested on: cleavers (Galium aparine L.), Ga; experiment: Test Example 4: herbicidal effect on upland weeds after emergence; details: dosage 5 kg/ha; sprayed after emergence; judged 14 days after treatment
Outline: (§5)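 Upland weeds and crop plants (soybean, wheat) are grown from seed in soil until they reach given leaf stages, then treated by spraying with the compound-containing agent; effects are judged two weeks later.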

[15] = tested on: bird's eye speedwell (Veronica persica Poir.), Vp; experiment: as above; details: dosage 5 kg/ha; sprayed after emergence; judged 14 days after treatment
Outline: as §5

[16] = tested on: forxtail grass (Alopecurus aequalis var. amurensis Ohwi), Am; experiment: as above; details: dosage 5 kg/ha; sprayed after emergence; judged 14 days after treatment
Outline: as §5

[17] = tested on: barnyard grass (Echinochloa crus-galli Beauv.), Ec; experiment: as above; details: dosage 5 kg/ha; sprayed after emergence; judged 14 days after treatment
Outline: as §5

[18] = tested on: velvetleaf (Abutilon theophtasti L.), At; experiment: as above; details: dosage 5 kg/ha; sprayed after emergence; judged 14 days after treatment
Outline: as §5

[19] = tested on: cocklebur (Xanthium strumarium L.), Xs; experiment: as above; details: dosage 5 kg/ha; sprayed after emergence; judged 14 days after treatment
Outline: as §5

[20] = tested on: soybean plant; experiment: Test Example 4: phytotoxicity to upland crop plants, treatment after emergence; details: dosage 5 kg/ha, sprayed after emergence, judged 14 days after treatment
Outline: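 Post-emergence foliar spray at a prescribed concentration, applied once the sown weeds and soybean reached defined leaf stages in soil vats; herbicidal effect and soybean injury scored after 14 days.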

[21] = tested on: wheat; experiment: as above; details: dosage 5 kg/ha, sprayed after emergence, judged 14 days after treatment
Outline: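 Weeds, soybean and wheat were sown in soil-filled vats, covered with soil and grown to set leaf stages before a post-emergence spray of an agent containing the compound at a prescribed concentration. Weed-killing rate and crop phytotoxicity were assessed 14 days after treatment.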

Row | SMILES | Pre-emergence treatment Barnyard grass (herbicidal effect) [1] | Pre-emergence treatment Bulrush (herbicidal effect) [2] | Phytotoxicity Wh [3] | Phytotoxicity So [4] | Post-emergence treatment Barnyard grass (herbicidal effect) [5] | Post-emergence treatment Bulrush (herbicidal effect) [6] | Post-emergence treatment Monochoria (herbicidal effect) [7] | Herbicidal effect Ga [8] | Herbicidal effect Vp [9] | Herbicidal effect Am [10] | Herbicidal effect Ec [11] | Herbicidal effect At [12] | Herbicidal effect Xs [13] | Herbicidal effect Ga [14] | Herbicidal effect Vp [15] | Herbicidal effect Am [16] | Herbicidal effect Ec [17] | Herbicidal effect At [18] | Herbicidal effect Xs [19] | Phytotoxicity So [20] | also measured
1 | CCNC(=O)c1nc2ccn(OC)c2cc1C(=O)Nc1c(CC)ccc(Cl)c1CC [compound 894] | 5 (Weed-killing rate is 100%.) | 5 (Weed-killing rate is 100%.) | 5 (Crop-killing rate is 100%.) | 4 (Crop-killing rate is 90-99%.) | 5 (Weed-killing rate is 100%.) | 5 (Weed-killing rate is 100%.) | 5 (Weed-killing rate is 100%.) | 5 (Weed-killing rate is 100%.) | 5 (Weed-killing rate is 100%.) | 5 (Weed-killing rate is 100%.) | 5 (Weed-killing rate is 100%.) | 5 (Weed-killing rate is 100%.) | 5 (Weed-killing rate is 100%.) | 5 (Weed-killing rate is 100%.) | 5 (Weed-killing rate is 100%.) | 5 (Weed-killing rate is 100%.) | 5 (Weed-killing rate is 100%.) | 5 (Weed-killing rate is 100%.) | 4 (Weed-killing rate is 90-99%.) | 4 (Crop-killing rate is 90-99%.) | Phytotoxicity Wh [21]: 5 (Crop-killing rate is 100%.)
2 | CCCNC(=O)c1nc2ccn(OC)c2cc1C(=O)Nc1c(CC)ccc(Cl)c1CC [compound 895] | 5 (Weed-killing rate is 100%.) | 5 (Weed-killing rate is 100%.) | 5 (Crop-killing rate is 100%.) | 4 (Crop-killing rate is 90-99%.) | 5 (Weed-killing rate is 100%.) | 5 (Weed-killing rate is 100%.) | 5 (Weed-killing rate is 100%.) | 5 (Weed-killing rate is 100%.) | 5 (Weed-killing rate is 100%.) | 5 (Weed-killing rate is 100%.) | 5 (Weed-killing rate is 100%.) | 5 (Weed-killing rate is 100%.) | 5 (Weed-killing rate is 100%.) | 5 (Weed-killing rate is 100%.) | 5 (Weed-killing rate is 100%.) | 5 (Weed-killing rate is 100%.) | 5 (Weed-killing rate is 100%.) | 5 (Weed-killing rate is 100%.) | 5 (Weed-killing rate is 100%.) | 4 (Crop-killing rate is 90-99%.) | Phytotoxicity Wh [21]: 5 (Crop-killing rate is 100%.)
3 | CCCNC(=O)c1nc2ccn(C)c2cc1C(=O)Nc1c(CC)ccc(Cl)c1CC [compound 907] | 5 (Weed-killing rate is 100%.) | 5 (Weed-killing rate is 100%.) | 5 (Crop-killing rate is 100%.) | 4 (Crop-killing rate is 90-99%.) | 5 (Weed-killing rate is 100%.) | 5 (Weed-killing rate is 100%.) | 5 (Weed-killing rate is 100%.) | 5 (Weed-killing rate is 100%.) | 5 (Weed-killing rate is 100%.) | 5 (Weed-killing rate is 100%.) | 5 (Weed-killing rate is 100%.) | 5 (Weed-killing rate is 100%.) | 5 (Weed-killing rate is 100%.) | 5 (Weed-killing rate is 100%.) | 5 (Weed-killing rate is 100%.) | 5 (Weed-killing rate is 100%.) | 5 (Weed-killing rate is 100%.) | 5 (Weed-killing rate is 100%.) | 5 (Weed-killing rate is 100%.) | 4 (Crop-killing rate is 90-99%.) | Phytotoxicity Wh [21]: 5 (Crop-killing rate is 100%.)
4 | CCCNC(=O)c1nc2c(cc1C(=O)Nc1c(CC)ccc(Cl)c1CC)CCO2 [compound 919] | 5 (Weed-killing rate is 100%.) | 5 (Weed-killing rate is 100%.) | 5 (Crop-killing rate is 100%.) | 5 (Crop-killing rate is 100%.) | 5 (Weed-killing rate is 100%.) | 5 (Weed-killing rate is 100%.) | 5 (Weed-killing rate is 100%.) | 5 (Weed-killing rate is 100%.) | 5 (Weed-killing rate is 100%.) | 5 (Weed-killing rate is 100%.) | 5 (Weed-killing rate is 100%.) | 5 (Weed-killing rate is 100%.) | 5 (Weed-killing rate is 100%.) | 5 (Weed-killing rate is 100%.) | 5 (Weed-killing rate is 100%.) | 5 (Weed-killing rate is 100%.) | 5 (Weed-killing rate is 100%.) | 5 (Weed-killing rate is 100%.) | 5 (Weed-killing rate is 100%.) | 5 (Crop-killing rate is 100%.) | Phytotoxicity Wh [21]: 5 (Crop-killing rate is 100%.)
5 | CCCNC(=O)c1nc2onc(C)c2cc1C(=O)Nc1c(CC)ccc(Cl)c1CC [compound 1064] | 5 (Weed-killing rate is 100%.) | 5 (Weed-killing rate is 100%.) | 5 (Crop-killing rate is 100%.) | 4 (Crop-killing rate is 90-99%.) | 5 (Weed-killing rate is 100%.) | 5 (Weed-killing rate is 100%.) | 5 (Weed-killing rate is 100%.) | 5 (Weed-killing rate is 100%.) | 5 (Weed-killing rate is 100%.) | 5 (Weed-killing rate is 100%.) | 5 (Weed-killing rate is 100%.) | 5 (Weed-killing rate is 100%.) | 5 (Weed-killing rate is 100%.) | 5 (Weed-killing rate is 100%.) | 5 (Weed-killing rate is 100%.) | 5 (Weed-killing rate is 100%.) | 5 (Weed-killing rate is 100%.) | 5 (Weed-killing rate is 100%.) | 5 (Weed-killing rate is 100%.) | 4 (Crop-killing rate is 90-99%.) | Phytotoxicity Wh [21]: 5 (Crop-killing rate is 100%.)
